Legend:
[1] = Stability in human hepatocytes; format: in vitro ADME
[2] = Tolerability and body weight in the xenograft study; format: in vivo, mouse; settings: 50 mg/kg oral, mice; no adverse health observations or recorded weight loss
Experimental: Tumours were established by sub-cutaneous implantation of 2 x 10^6 HCT116 cells suspended in 50% Matrigel into the flanks of a cohort of mice. When a sufficient number of mice had developed tumours of approximately 100mm3, they were randomly assigned to three groups: Vehicle, 50mg/kg Poloppin-II or 200mg/kg Poloppin-II, with 10 mice per group. Mice were treated orally according to their treatment group once every three days. Tumour volume was measured three times per week with calipers. Body weight was measured three times per week. In addition to mice assigned to tumour volume efficacy arm of the study, 16 mice with established HCT116 xenografts were assigned to either Vehicle or 200mg/kg oral dosing groups, with 8 mice per group. 24 hours after a single dose, mice were euthanised, tumours removed, snap frozen and 30-50microgram of lysates were analysed by Western blotting on 4-12% Bis-Tris acrylamide gels, and transferred using the Invitrogen iBlot dry system. Phospho-Histone H3 was detected using Abcam antibody ab5176, beta-actin with Sigma antibody a5316. […] HRP was visualised with ECL-Plus (GE Healthcare).

[3] = molecular target: T1, NanoLuc-PLK2 fusion protein (Homo sapiens, UniProt Q9NYY3); assay: NanoLuc thermal shift assay; format: cell-based; settings: compound at 100 μM
T1 construct: NanoLuc fused to the N-termini of full-length human PLK1, PLK2, PLK3, PLK4 or p38α MAPK; expressed in transfected cells; host or cells: HeLa, transient, digitonin-permeabilised
Experimental: (§1) HeLa cells were transfected with plasmids encoding NanoLuc fused to the N-termini of full-length human PLK1, PLK2, PLK3, PLK4 or p38α MAPK. Twenty-four h after transfection, the thermal stability of the fusion proteins was tested using a modified version of the assay protocol supplied by Promega. Briefly, cells were harvested by tyrpsinisation and centrifugation, counted, and resuspended to 200,000 cells/ml in 3mls of serum-free OptiMEM media. Cells were then permeabilised using with 50ug/ml digitonin in DMSO for 5 min and incubated with test compounds at 100uM, plus protease inhibitor cocktail (Promega G6521), in a final concentration of 5% DMSO for 1 h at 37°C. After incubation, 100 μl/well of cells were aliquoted into a 96-well, thin-walled PCR plate and then heated for 3 minutes using a pre-warmed MJ Tetrad DNA Engine set to run a temperature gradient of 42 to 66°C. The plates were then cooled to room temperature for 10 min, and then 80μl of each sample was transferred to a white-walled 96-well Nunc plate before NanoBRET™ NanoGlo Substrate diluted in Opti-MEM was added. NanoLuc enzyme activity was read out within 10 min using a BMG Clariostar plate reader.

[4] = molecular target: T2, NanoLuc-PLK3 fusion protein (Homo sapiens, UniProt Q9H4B4); assay: NanoLuc thermal shift assay; format: cell-based; settings: compound at 100 μM
T2 construct: NanoLuc fused to the N-termini of full-length human PLK1, PLK2, PLK3, PLK4 or p38α MAPK; expressed in transfected cells; host or cells: HeLa, transient, digitonin-permeabilised
Experimental: as §1

T2 sequence (Q9H4B4 whole entry, the tested form may be a part): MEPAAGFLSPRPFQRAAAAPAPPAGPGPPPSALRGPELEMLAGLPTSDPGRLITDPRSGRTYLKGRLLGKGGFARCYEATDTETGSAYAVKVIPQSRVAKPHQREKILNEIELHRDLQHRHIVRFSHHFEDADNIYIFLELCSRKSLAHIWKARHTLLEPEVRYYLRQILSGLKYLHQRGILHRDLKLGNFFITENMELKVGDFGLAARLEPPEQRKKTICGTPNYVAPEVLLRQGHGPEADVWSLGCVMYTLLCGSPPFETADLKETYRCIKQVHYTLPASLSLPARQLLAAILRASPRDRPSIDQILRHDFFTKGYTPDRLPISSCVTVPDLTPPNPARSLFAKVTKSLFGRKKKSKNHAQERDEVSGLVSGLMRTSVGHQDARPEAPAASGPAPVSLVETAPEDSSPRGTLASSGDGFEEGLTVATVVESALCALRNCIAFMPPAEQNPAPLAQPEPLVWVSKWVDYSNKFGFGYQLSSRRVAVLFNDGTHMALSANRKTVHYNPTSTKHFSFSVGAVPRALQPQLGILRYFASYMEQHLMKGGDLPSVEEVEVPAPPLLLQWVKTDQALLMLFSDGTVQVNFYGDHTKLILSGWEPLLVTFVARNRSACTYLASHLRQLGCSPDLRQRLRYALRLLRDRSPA
T1 sequence (Q9NYY3 whole entry, the tested form may be a part): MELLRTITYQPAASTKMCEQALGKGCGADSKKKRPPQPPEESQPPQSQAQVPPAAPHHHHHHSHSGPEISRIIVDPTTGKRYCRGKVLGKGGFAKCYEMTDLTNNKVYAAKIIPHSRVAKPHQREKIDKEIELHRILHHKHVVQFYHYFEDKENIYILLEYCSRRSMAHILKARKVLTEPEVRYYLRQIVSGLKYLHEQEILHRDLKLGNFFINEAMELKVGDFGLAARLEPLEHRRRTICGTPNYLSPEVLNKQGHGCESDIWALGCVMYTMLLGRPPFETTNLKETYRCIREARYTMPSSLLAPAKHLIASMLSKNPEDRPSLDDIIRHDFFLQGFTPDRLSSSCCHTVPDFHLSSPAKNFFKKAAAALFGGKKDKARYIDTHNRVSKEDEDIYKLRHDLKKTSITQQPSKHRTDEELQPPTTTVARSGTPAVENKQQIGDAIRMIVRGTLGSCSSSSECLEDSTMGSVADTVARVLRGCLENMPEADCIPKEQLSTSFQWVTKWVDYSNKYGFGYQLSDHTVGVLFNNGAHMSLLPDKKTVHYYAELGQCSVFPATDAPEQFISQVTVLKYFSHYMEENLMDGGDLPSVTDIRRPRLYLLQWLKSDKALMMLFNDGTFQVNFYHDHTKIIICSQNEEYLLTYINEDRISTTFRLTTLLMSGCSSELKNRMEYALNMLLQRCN

Structure (SMILES) | half-life [1] | hepatocyte CLint [1] | tolerability during the study [2] | thermal stability of NanoLuc-PLK2 [3] | thermal stability of NanoLuc-PLK3 [4]
CN(C)CCNC(=O)c1ccc(-c2ccc(-c3ccc(Cl)cc3)n2-c2ccccc2C(F)(F)F)cc1 [Poloppin-II] | 2.27 h | 10 µL/min/1e6 cells | well tolerated | – | –
O=C(O)CCc1ccc(-c2ccc(Br)cc2)n1-c1ccccc1C(F)(F)F [Poloppin] | – | – | – | increases the thermal stability | increases the thermal stability

Source: article PMC5563081, “Modulating Protein-Protein Interactions of the Mitotic Polo-like Kinases to Target Mutant KRAS” (Cell Chemical Biology, 2017)
